Marks after values point to notes of the source that are not given here.
Assays:
[1] = system: SD rats; test: Oral glucose tolerance test (OGTT) in rats; single injection; 1 mg/kg; assay type: in vivo; set-up: Change in AUC (mg/dL*min): unit not given here; conditions: for Blood Glucose AUC (mg/dL*min) Mean: Exp. 1; for Change in AUC (mg/dL*min): Exp. 1, vs control group
Protocol: (§1) Animals were divided into three groups—a normal control group, a test group and a third semaglutide group, with 4 animals in each group. The animals were fasted for 12 hours before initiation of OGTT. To the test group animals, the Compound 1 was injected subcutaneously at 1 mg/kg dose. To the semaglutide group, a dose of 1 mg/kg was injected subcutaneously. After 22 hrs, 166 hrs and 334 hrs of subcutaneous injection of test drug or semaglutide, blood glucose was measured with blood glucose meter (time 0 measurements). All the animals were then given 2 g/kg of glucose solution orally. Blood glucose was measured at 20, 40, 60, 90 and 120 minutes following glucose challenge. Body weight and food intake was recorded. Blood glucose data was analyzed using Two way ANOVA followed by Bonferroni posttests using PRISM (Graph Pad version 5.03). Data of Blood glucose AUC0-120 min, was analyzed using t test.
as §1, with “animals,” for “animals, the”, “1, Compound 13 and Compound 16 were” for “1 was”, “compound” for “drug”

[2] = system: db/db mice (diabetic mouse model); test: Separate db/db diabetic mouse study, q2d*15 up to day 28, recovery period day 29 to day 45; assay type: in vivo; conditions: for Blood Glucose AUC (Day 30-37) % Change vs Control / Blood Glucose AUC (Day 30-37) (mg/dL*days) Mean / Blood Glucose AUC (Day 38-45) % Change vs Control / Blood Glucose AUC (Day 38-45) (mg/dL*days) Mean: recovery period
Protocol: The study was performed in similar manner as above on diabetic mouse model. The animals were divided into three treatment groups—a diabetic control group, a test group and a semaglutide treatment group. The representative compounds of the present disclosure, Compound 1, Compound 13 and Compound 16, were injected subcutaneously at 3.04 or 6.078 nM dose (every alternate day up to day 28 (q2d*15). The same dosage regimen was administered in semaglutide treatment group. Measurements of blood glucose levels and body weight were done daily. % HbA1c, Insulin was measured on Day 0, day 14 and day 29. Cumulative food intake and body weight change was calculated on day 14 and 29. % HbA1c, Insulin data was analyzed by two way ANOVA followed by Bonferroni's posttests using PRISM (Graph Pad version 5.03). Whereas Blood Glucose AUC, Body weight change and Cumulative food intake data was analyzed by one way ANOVA followed by Bonferroni's posttests using PRISM (Graph Pad version 5.03). From day 29 to day 45, animals were kept on recovery period during which no drug treatment was given. Blood Glucose and Body weight was measured during this period. On day 45, Body weight Changes, % HbA1c, Insulin was measured.

[3] = Food intake and body weight recorded in the rat OGTT study; assay type: in vivo, rats; conditions: 1 mg/Kg; for Body Weight Change (%) Mean / Food Consumption (g) Mean: Exp. 1
Protocol: as §1
as §1, with “animals,” for “animals, the”, “1, Compound 13 and Compound 16 were” for “1 was”, “compound” for “drug”

[4] = OGTT, 1 mg/Kg dose, after 24 hrs
[5] = earlier dose 3.04 nM (3.4 nM given for Compound 16)
[6] = recovery study, day 45, earlier dose 3.04 nM
[7] = recovery study, day 45, earlier dose 6.078 nM (6.0788 nM given for Compound 13)

Question: Which “% Glucose Reduction (Blood Glucose AUC0-120 min)” value [1, 4] does the source give for “Compound 7: SEQ ID NO: 05, Moiety B; liraglutide with 2nd amino acid Ala replaced with Aib and additional 32nd amino acid Leu (HXXXGTFTSDVSSYLXGQAAXEFXAWLVRGRGXX; (2)..(2) Xaa = Aib; (3)..(3) Xaa = absent.; (4)..(4) Xaa = Glu.; (16)..(16) Xaa = Glu.; (21)..(21) Lys is substituted; (24)..(24) Xaa is Ile.; (33)..(33) Xaa is Leu.; (34)..(34) Xaa is absent.)” here?
Answer: 71.9%

Question: And the “Comp/std Liraglutide (ratio of % glucose reduction)” value [1, 4]?
Answer: 1.73

Question: And the “blood glucose lowering effect vs liraglutide” value ([1]; OGTT, 1 mg/Kg, at 24 hrs)?
Answer: significantly higher than liraglutide

Question: Which “Blood Glucose AUC (Day 0-29) % Change Vs Control” value ([2]; 3.04 nM, q2d*15) does the source give for “Compound 13: SEQ ID NO: 05, acylated with Moiety C (HXXXGTFTSDVSSYLXGQAAXEFXAWLVRGRGXX; lipidated side chain; (2)..(2) Xaa = Aib; (3)..(3) Xaa = absent.; (4)..(4) Xaa = Glu.; (16)..(16) Xaa = Glu.; (21)..(21) Lys is substituted; (24)..(24) Xaa is Ile.; (33)..(33) Xaa is Leu.; (34)..(34) Xaa is absent.)” here?
Answer: −43.86%

Question: What about the “Blood Glucose AUC (Day 0-29) (mg/dL*days) Mean” value ([2]; 3.04 nM, q2d*15) of the same substance?
Answer: 9515.4*** mg/dL*days

Question: What about the “Body Weight Change Day 29, % Change vs Day 0 Mean” value ([2]; 3.04 nM, q2d*15) of the same substance?
Answer: 1.2%

Question: What about the “Cumulative Food Intake (g) Day 0-29 Mean” value ([2]; 3.04 nM, q2d*15) of the same substance?
Answer: 75.2 g

Question: What about the “Blood Glucose AUC (Day 0-29) % Change Vs Control” value ([2]; 6.078 nM, q2d*15) of the same substance?
Answer: −50.13%

Question: And the “Blood Glucose AUC (Day 0-29) (mg/dL*days) Mean” value ([2]; 6.078 nM, q2d*15)?
Answer: 8451.7***## mg/dL*days

Question: What about the “Body Weight Change Day 29, % Change vs Day 0 Mean” value ([2]; 6.078 nM, q2d*15) of the same substance?
Answer: −1.1%

Question: What about the “Cumulative Food Intake (g) Day 0-29 Mean” value ([2]; 6.078 nM, q2d*15) of the same substance?
Answer: 70.4 g

Question: And the “% HbA1C Mean” value ([2]; Day 0, 3.04 nM, q2d*15)?
Answer: 7.7%

Question: And the “Insulin (ng/mL) Mean” value ([2]; Day 0, 3.04 nM, q2d*15)?
Answer: 21.7 ng/mL

Question: What about the “% HbA1C Mean” value ([2]; Day 0, 6.078 nM, q2d*15) of the same substance?
Answer: 7.83%

Question: What about the “Insulin (ng/mL) Mean” value ([2]; Day 0, 6.078 nM, q2d*15) of the same substance?
Answer: 26.2 ng/mL

Question: And the “% HbA1C Mean” value ([2]; Day 14, 3.04 nM, q2d*15)?
Answer: 6.6* %

Question: And the “Insulin (ng/mL) Mean” value ([2]; Day 14, 3.04 nM, q2d*15)?
Answer: 41.8 ng/mL

Question: And the “% HbA1C Mean” value ([2]; Day 14, 6.078 nM, q2d*15)?
Answer: 6.00 *** %

Question: And the “Insulin (ng/mL) Mean” value ([2]; Day 14, 6.078 nM, q2d*15)?
Answer: 61.2*** ng/mL

Question: What about the “% HbA1C Mean” value ([2]; Day 29, 3.04 nM, q2d*15) of the same substance?
Answer: 6.4 *** %

Question: And the “Insulin (ng/mL) Mean” value ([2]; Day 29, 3.04 nM, q2d*15)?
Answer: 54.4** ng/mL

Question: What about the “% HbA1C Mean” value ([2]; Day 29, 6.078 nM, q2d*15) of the same substance?
Answer: 5.64 *** %

Question: What about the “Insulin (ng/mL) Mean” value ([2]; Day 29, 6.078 nM, q2d*15) of the same substance?
Answer: 59.4*** ng/mL

Question: What about the “HbA1c, blood glucose, food consumption and body weight vs control” value ([2]; about 3 nM and 6 nM dose) of the same substance?
Answer: significant reduction

Question: And the “Blood Glucose AUC (Day 30-37) % Change vs Control” value [2, 5]?
Answer: −27.93%

Question: What about the “Blood Glucose AUC (Day 30-37) (mg/dL*days) Mean” value [2, 5] of the same substance?
Answer: 2588.7** mg/dL*days

Question: What about the “Blood Glucose AUC (Day 38-45) % Change vs Control” value [2, 5] of the same substance?
Answer: −5.57%

Question: What about the “Blood Glucose AUC (Day 38-45) (mg/dL*days) Mean” value [2, 5] of the same substance?
Answer: 3401.0 mg·days/dL

Question: And the “Blood Glucose AUC (Day 30-37) % Change vs Control” value ([2]; earlier dose 6.078 nM)?
Answer: −19.94%

Question: And the “Blood Glucose AUC (Day 30-37) (mg/dL*days) Mean” value ([2]; earlier dose 6.078 nM)?
Answer: 2875.7 mg·days/dL

Question: And the “Blood Glucose AUC (Day 38-45) % Change vs Control” value ([2]; earlier dose 6.078 nM)?
Answer: −6.68%

Question: And the “Blood Glucose AUC (Day 38-45) (mg/dL*days) Mean” value ([2]; earlier dose 6.078 nM)?
Answer: 3361.0 mg·days/dL

Question: What about the “% HbA1C Mean” value [2, 6] of the same substance?
Answer: 7.5%

Question: And the “Delta HbA1C vs. DC” value [2, 6]?
Answer: −1.0

Question: What about the “Insulin (ng/mL) Mean” value [2, 6] of the same substance?
Answer: 31.2 ng/mL

Question: And the “% HbA1C Mean” value [2, 7]?
Answer: 7.3%

Question: And the “Delta HbA1C vs. DC” value [2, 7]?
Answer: −1.2

Question: What about the “Insulin (ng/mL) Mean” value [2, 7] of the same substance?
Answer: 34.3 ng/mL

Question: And the “Body Weight % Change vs Day 45 Mean” value ([2]; recovery study, earlier dose 3.04 nM)?
Answer: 6.6%

Question: What about the “Body Weight % Change vs Day 45 Mean” value ([2]; recovery study, earlier dose 6.078 nM (6.0788 nM given for Compound 13)) of the same substance?
Answer: 5.5%

Question: And the “Body Weight Change (%) Mean” value ([3]; 48 h)?
Answer: −10.2%

Question: What about the “Food Consumption (g) Mean” value ([3]; 48 h) of the same substance?
Answer: 8.4 g

Question: What about the “Body Weight Change (%) Mean” value ([3]; 154 h) of the same substance?
Answer: 4.5%

Question: And the “Food Consumption (g) Mean” value ([3]; 154 h)?
Answer: 62.3 g

Question: And the “Body Weight Change (%) Mean” value ([3]; 324 h)?
Answer: 8.2%

Question: What about the “Food Consumption (g) Mean” value ([3]; 324 h) of the same substance?
Answer: 82.44 g

Question: What about the “food consumed vs animals administered with semaglutide” value ([3]; text on Table 8) of the same substance?
Answer: consumed significantly less food

Question: What about the “Blood Glucose AUC (mg/dL*min) Mean” value ([1]; OGTT, 1 mg/Kg, 22 hr) of the same substance?
Answer: 2795.0 mg·min/dL

Question: And the “Change in AUC (mg/dL*min)” value ([1]; OGTT, 1 mg/Kg, 22 hr)?
Answer: −81.2

Question: And the “Blood Glucose AUC (mg/dL*min) Mean” value ([1]; OGTT, 1 mg/Kg, 168 hr)?
Answer: 6950.0 mg·min/dL

Question: And the “Change in AUC (mg/dL*min)” value ([1]; OGTT, 1 mg/Kg, 168 hr)?
Answer: −59.5

Question: And the “Blood Glucose AUC (mg/dL*min) Mean” value ([1]; OGTT, 1 mg/Kg, 336 hr)?
Answer: 11368.0 mg·min/dL

Question: What about the “Change in AUC (mg/dL*min)” value ([1]; OGTT, 1 mg/Kg, 336 hr) of the same substance?
Answer: −31.6

Question: What about the “reduction in blood glucose AUC” value ([1]; after 168 hrs of injection, 1 mg/kg) of the same substance?
Answer: about 60%

Reference: patent publication US11447535B2, “GLP-1 analogues” (Sun Pharmaceutical Industries Limited, priority 2018, dated 2022)
